Consider 2 compounds from PMC7699592, “Interaction between the Lentil Lipid Transfer Protein Lc-LTP2 and Its Novel Signal Ligand PI(4,5)P2” (Membranes, 2020).

Common to all, as to assay type: binding
Assay [1] concerns the target T1, Lc-LTP2 (Lens culinaris, UniProt A0AT29).
T1 construct: recombinant mature protein, overexpressed in Escherichia coli, purified; four disulfide bonds
T1 sequence (A0AT29 26-118): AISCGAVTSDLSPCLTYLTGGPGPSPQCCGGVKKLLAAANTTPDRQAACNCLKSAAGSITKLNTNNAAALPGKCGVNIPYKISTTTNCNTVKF
Kind of assay: TNS fluorescent probe displacement. The settings on record: 4 uM LTP, 10 uM PI(4,5)P2, 3 uM TNS, pH 7.0, 25 °C.

Assay [2] concerns the target T2, LTP from mugwort (mugwort LTP) (Artemisia vulgaris, UniProt C4MGG9).
T2 construct: gene Art v 3; recombinant, overexpressed in Escherichia coli, purified; four disulfide bonds
T2 sequence (C4MGG9 24-114): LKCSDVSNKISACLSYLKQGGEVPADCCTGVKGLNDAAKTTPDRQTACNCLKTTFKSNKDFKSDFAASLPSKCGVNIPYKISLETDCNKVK
Put plainly: TNS fluorescent probe displacement. The following applies: 4 uM LTP, 10 uM PI(4,5)P2, 3 uM TNS, pH 7.0, 25 °C.

Assay [3] has as its target T3, Lc-LTP2 (Lens culinaris, UniProt A0AT29, R70A/Y105A).
T3 construct: recombinant mature protein, overexpressed in Escherichia coli, purified; four disulfide bonds
Kind of assay: TNS fluorescent probe displacement. The settings on record: 4 uM LTP, 10 uM PI(4,5)P2, 3 uM TNS, pH 7.0, 25 °C.

In assay [4] the target is T4, Lc-LTP2 (Lens culinaris, UniProt A0AT29, Y105A).
T4 construct: recombinant mature protein, overexpressed in Escherichia coli, purified; four disulfide bonds
T4 sequence (A0AT29 26-118 Y105A): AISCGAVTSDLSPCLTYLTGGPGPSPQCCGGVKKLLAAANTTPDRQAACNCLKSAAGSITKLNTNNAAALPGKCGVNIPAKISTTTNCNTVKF
Kind of assay: TNS fluorescent probe displacement. The settings on record: 4 uM LTP, 10 uM PI(4,5)P2, 3 uM TNS, pH 7.0, 25 °C.

In assay [5] the target is T5, LTP from ragweed (ragweed LTP) (Ambrosia artemisiifolia, UniProt O04004).
T5 construct: recombinant, overexpressed in Escherichia coli, purified; four disulfide bonds
T5 sequence (O04004 26-118): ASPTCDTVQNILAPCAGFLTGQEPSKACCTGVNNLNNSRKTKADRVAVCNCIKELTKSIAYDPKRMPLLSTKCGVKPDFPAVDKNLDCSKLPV
Kind of assay: TNS fluorescent probe displacement. The following applies: 4 uM LTP, 10 uM PI(4,5)P2, 3 uM TNS, pH 7.0, 25 °C.

In assay [6] the target is T6, LTP from strawberry (strawberry LTP) (Fragaria x ananassa, UniProt Q8VX12).
T6 construct: recombinant, overexpressed in Escherichia coli, purified; four disulfide bonds
Kind of assay: TNS fluorescent probe displacement. The settings on record: 4 uM LTP, 10 uM PI(4,5)P2, 3 uM TNS, pH 7.0, 25 °C.

The target in assay [7] is T2, LTP from mugwort (mugwort LTP). Put plainly: protein-lipid overlay on membrane lipid strips. The settings on record: lipid immobilised, 100 pM per spot; PBS; anti-Lc-LTP2 antibody detection.
The target of assay [8] is T5, LTP from ragweed (ragweed LTP). Put plainly: protein-lipid overlay on membrane lipid strips. The following applies: lipid immobilised, 100 pM per spot; PBS; anti-Lc-LTP2 antibody detection.
Assay [9] concerns the target T7, LTP from strawberry (strawberry LTP) (Fragaria x ananassa, UniProt Q8VX12).
T7 construct: gene lpt46; recombinant, overexpressed in Escherichia coli, purified; four disulfide bonds
T7 sequence (Q8VX12 27-117): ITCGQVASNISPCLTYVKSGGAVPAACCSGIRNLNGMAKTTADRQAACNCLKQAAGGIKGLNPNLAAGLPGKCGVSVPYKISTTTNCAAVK
Kind of assay: protein-lipid overlay on membrane lipid strips. The settings on record: lipid immobilised, […] per spot; PBS; anti-Lc-LTP2 antibody detection.

T3 sequence (A0AT29 26-118 R70A/Y105A): as the sequence (A0AT29 26-118 Y105A) above, with R45A counted along it

As for PI(4,5)P2, the “% reduction of LTP-TNS fluorescence” value is 21% on Lc-LTP2 [1]; 11% in [2]; 16% on Lc-LTP2 [3]; 8% on Lc-LTP2 [4]; 9% in assay [5]; 14% in assay [6].

On to `CCCCCCCCCCCCCCCC(=O)OC[C@H](COP(=O)(O)O[C@@H]1[C@H](O)[C@H](O)[C@@H](OP(=O)(O)O)[C@H](OP(=O)(O)O)[C@H]1O)OC(=O)CCCCCCCCCCCCCCC` [PI(4,5)P2 diC16], for which the “protein-lipid overlay on membrane lipid strips” value in assay [7], in assay [8] and in [9] was “Protein-lipid overlay assays with other LTPs from the abovementioned plants led to the same results” in each case.
